Consider 3 molecules from patent publication US20060052357A1, “Organometallic anti-tumour agent” (priority 2001, published 2006).

Marks after values point to notes of the source that are not given here.

One data set has as its system S-180 sarcoma tumor. In words: S-180 sarcoma in white crossbred mice (Example 7). Particulars: day 21. It is filed as in vivo. The protocol:
After transplantation of the S-180 sarcoma tumor into white crossbred mice, the animals received the substance MOC.melphalan by intraabdominal administration in a dosage of 1 mg/kg in 0.3 ml of 10% DMSO solution on days 3, 5 and 9. The animals were sacrificed on day 21 of the investigation and underwent histological, morphological examination (table 11).
After transplantation of the S-180 sarcoma tumor into white crossbred mice, the animals received MOC.melphalan and melphalan by intraabdominal administration in a dosage of 5 mg/kg in 0.3 ml of 10% DMSO solution on days 3, 5, 7 and 9. The animals were sacrificed on day 21 of the investigation and underwent histological, morphological examination (table 12).
After transplantation of the S-180 sarcoma tumor into white crossbred mice, the animals received MOC.melphalan and melphalan by intraabdominal administration in a dosage of 5 mg/kg in 0.3 ml of 10% DMSO solution on days 2, 4, 6, 8 and 10. The animals were sacrificed on day 21 of the investigation and underwent histological, morphological examination (table 13).

For a further data set, the system named is C-180 sarcoma. The data set is described as follows: Antitumor activity for C-180 sarcoma, intraperitoneal. It is filed as in vivo. Particulars: 5 mg/kg intraperitoneal. The protocol:
4. Antitumor Activity for C-180 Sarcoma
The results of series of experiments in which the stated active ingredient was administered intra-peritoneally in the stated dosage in physiological saline solution are shown in table 5 below.

For data set [1], the system named is sarcoma-180 tumor. In words: Sarcoma-180 tumor, MOC.tegafur and tegafur (Example 11, Exp. III). It is filed as in vivo, mice. The following applies: for Tumor weight: control 3.9. The method, then:
48 hours after transplantation of the sarcoma-180 tumor, mice of the Balb line received the substance MOC.tegafur by intraabdominal administration in 0.3 ml of a physiological solution. Administration took place on days 3, 5 and 9. The animals were sacrificed on day 21 of the investigation.

For data set [2] the following is noted: in vivo; cited from earlier work.
Data set [3] deals with AKATON tumor. In words: AKATON tumor, MOC.tegafur and tegafur (Example 11, Exp. I, II). It is filed as in vivo, mice. The protocol: 48 hours after transplantation of the AKATON tumor (adenocarcinoma of the small bowel), the mice of the Balb line received the substance MOC.tegafur in a dosage of 5 mg/kg of body weight by intraabdominal administration in 0.3 ml of a physiological solution. This took place on days 3, 5, 7 and 9. The animals were sacrificed on day 21 of the investigation.
48 hours after transplantation of the AKATON tumor, the mice of the Balb line received the substance MOC.tegafur by intravenous administration in 0.3 ml of a physiological solution. This took place on days 3, 5, 7 and 9. The animals were sacrificed on day 21 of the investigation.

Data set [4] concerns tumor cell cultures (KML). In words: Suppression of cell proliferation in tumor cell cultures (KML). It is filed as cell-based, mice. Particulars: incubation 24 hours. The protocol:
The effect of the substances MOC.melphalan and MOC.tegafur of the invention on the proliferative activity, morphology and protein synthesis was investigated on tumor cell cultures (KML). This took place with the mice separated out of the melanoma-16 line. 80 000 cells/ml were distributed in 3 ml of DMEM with the addition of embryonic calf serum, 200 μ/mol of glutamine and antibiotic. After cultivation of the cells at a temperature of 37° C. for 24 hours (logarithmic cell growth phase), the MOC substances were added in the concentration of 10 and 100 μg/ml. After incubation for 24 hours, the number of live cells was determined. In parallel, the fixed specimens of the cells were prepared for morphological analysis.

The next data set has as its system B-16 melanoma tumor. In words: B-16 melanoma tumor, MOC.melphalan and MOC.tegafur (Example 13). It is filed as in vivo, mice. Particulars: Dose 5 mg/kg (table), day 16. The protocol: MOC.tegafur was administered in a physiological solution. The animals in the control group likewise received administration of the solutions (without products). On day 16, the mice were sacrificed by decapitation, tumor tissue was removed for histological examination, and the tumor was investigated for antitumor activity (table 23). The tumors were fixed with 10% formalin, which was followed by embedding in paraffin. The section thickness of 5 μm were stained with hematoxylin-eosinome. The microscopy was carried out with a Leica Galen microscope.

Data set [5] concerns sarcoma-180 tumor. In words: Sarcoma-180 tumor tissue changes and mitoses (Example 12). It is filed as in vivo, mice. Particulars: 5 mg/kg intraabdominal days 3, 5, 9. The protocol:
The sarcoma-180 tumor was transplanted with a weight of 20 to 22 g into sexually mature crossbred mice. 48 hours after the transplantation of the sarcoma-180 tumor, the mice received the substance MOC.tegafur in a dosage of 5 mg/kg of body weight by intraabdominal administration in 0.9% NaCl solution. Administration took place on days 3, 5 and 9.
On day 21, the mice were sacrificed by decapitation and the tumor tissue was removed for histological examination. The antitumor activity of MOC.tegafur was provisionally determined.
In the investigation, the activity of the tumor tissue was determined in animals which received the product MOC.tegafur and in untreated animals in the control. The number of mitoses and the mitosis index was calculated. The average number of mitoses in the investigation group was 2.55% and in the control animal group was 11.2%. The mitosis index in these animal groups was 0.9 and 4.75. On examination under the microscope, an increase in the number of pathological metaphases and anaphases was observed.

The test system of data set [6] is AKATON tumor. The data set is described as follows: AKATON tumor transplanted after administration of MOC.tegafur. Type of data set: in vivo. The following applies: 5 mg/kg i.v. 4 days in succession before transplantation. The protocol:
The product was administered intravenously in a physiological solution of 0.3 ml on 4 days in succession (table 20). The AKATON tumor was then transplanted.

The subject of data set [7] is tumor cell cultures (KML). The data set is described as follows: Protein synthesis: inclusion of 3H-amino acids in tumor cell cultures. Type of data set: cell-based, mice. Particulars: 50 μg/ml, incubation 24 hours. The method, then:
The effect of the substances on protein synthesis is determined with the aid of the suppression stage through the inclusion of radioactive precursors of amino acids (totaled mixture of ^3H-amino acids). 1 million cells in a “log phase” were selected for this. The complexes were introduced in a dosage of 50 μg/ml and, in parallel, the amino acids with an activity of 10 mCi/ml were introduced into 10 ml bottles. After incubation for 24 hours, the cells were washed out from the cultivation nutrient medium, and a lysis (disruption) was carried out. The radioactivity of the proteins was determined in a […] (table 25).

A short description of data set [8]: Solubility and stability in air.
The mark [9] stands for this setting: 3 mg/kg intraabdominal days 3, 5, 9, day 21.
[10] abbreviates: 5 mg/kg intraabdominal days 3, 5, 9, day 21.

Regarding `N[C@@H](Cc1ccc(N(CCCl)CCCl)cc1)C(=O)O` [Melphalan, 4-[bis(2-chloroethyl)amino]-L-phenylalanine, reference compound], the Percentage inhibition in the data set with S-180 sarcoma tumor (5 mg/kg intraabdominal days 2, 4, 6, 8, 10) amounted to 38%; in the data set with S-180 sarcoma tumor (5 mg/kg intraabdominal days 3, 5, 7, 9), 49%. The Average tumor mass with S-180 sarcoma tumor (5 mg/kg intraabdominal days 2, 4, 6, 8, 10, control 3.9 ± 0.5) is listed as 2.4 ± 1.1 g; in the data set on S-180 sarcoma tumor (5 mg/kg intraabdominal days 3, 5, 7, 9, control 2.8), 1.4 g. Besides, the “% inhibition” value with C-180 sarcoma amounted to 49%. In addition, the “Mass of the tumor” value in the data set with C-180 sarcoma (control 2.8) was found to be 2.4 ± 1.1 g.
Take `O=c1[nH]c(=O)n(C2CCCO2)cc1F` (stereo not drawn) [Tegafur, 5-fluoro-1-(tetrahydro-2-furyl)uracil, reference compound]: the Percent inhibition is 20.5% in the data set with sarcoma-180 tumor [1] (250 mg/kg three times); 51% with AKATON tumor [3] (250 mg/kg intravenous four times); 54.5% in the data set with AKATON tumor [3] (250 mg/kg, four times, intraabdominal experiment). In addition, the Tumor weight is listed as 3.1 g with sarcoma-180 tumor [1] (250 mg/kg three times); 2.1 g in the data set with AKATON tumor [3] (250 mg/kg intravenous four times, control 4.3); 1.95 g with AKATON tumor [3] (250 mg/kg, four times, intraabdominal experiment, control 4.4). Further, the LD50 in data set [2] was 650 mg/kg.
Consider Cu(C5H7O2)2.C8H9O3N2F [MOC.tegafur], for which the Percent inhibition in the data set with sarcoma-180 tumor [1] (setting [9]) is listed as 89%; in the data set on sarcoma-180 tumor [1] (setting [10]), 95%; in the data set on B-16 melanoma tumor (intraabdominal days 3, 5, 9), 65.66%; in the data set with AKATON tumor [3] (5 mg/kg intraabdominal days 3, 5, 7, 9, day 21), 86%; in the data set on AKATON tumor [3] (5 mg/kg intravenous days 3, 5, 7, 9, day 21), 80%. In addition, the Tumor weight with sarcoma-180 tumor [1] (setting [9]) is listed as 0.43 g; in the data set on sarcoma-180 tumor [1] (setting [10]) it was 0.195 g; in the data set on B-16 melanoma tumor (intraabdominal days 3, 5, 9, control 3.22), 1.13 g; in the data set with AKATON tumor [6] (control 4.46), 2.20 g; with AKATON tumor [3] (5 mg/kg intraabdominal days 3, 5, 7, 9, day 21, control 4.4), 0.61 g; in the data set on AKATON tumor [3] (5 mg/kg intravenous days 3, 5, 7, 9, day 21, control 4.3), 0.86 g. In addition, the “Suppression of growth cells” value turned out to be 32% in data set [4] (10 μg/ml) and 100% in data set [4] (100 μg/ml). Also, the “MI (mitosis index)” value in the data set on B-16 melanoma tumor (control 4.22) came to 0.86. Moreover, the mitosis index in the data set on sarcoma-180 tumor [5] (control 4.75) stood at 0.9. Moreover, in the data set on sarcoma-180 tumor [5] (control 11.2%), the “average number of mitoses” value came out at 2.55%. In addition, in the data set on sarcoma-180 tumor [5] (day 21, provisionally determined), the “percent inhibition of tumor proliferation” value came to 96.4%. Also, the “Percent inhibition of tumor volume” value in the data set with AKATON tumor [6] is 61.3* %. Also, the “Percent inhibition of tumor weight” value with AKATON tumor [6] is given as 50* %. Also, the “Size of the tumor” value with AKATON tumor [6] (control 7.90) was found to be 3.06 cm^3. The “Suppression of amino acid inclusion” value in data set [7] is 77%. For the same molecule, the solubility result in data set [8] (in ether and chloroform) was “insoluble”; in data set [8] (in water, physiological solution, methanol, ethanol, DMSO and Twin-80), “readily soluble”.
